Measured values taken from PMC11141866, “Pyrimidine depletion enhances targeted and immune therapy combinations in acute myeloid leukemia” (JCI Insight, 2024).
Several values for one entry are separate records, joined by “and”; a condition that tells them apart may be missing. Identical values can stand only once. Like-named read-outs stand apart in the source and are kept apart here.

Legend:
primary AML samples = assay: MTS proliferation assay, primary AML samples; assay type: cell-based, human; set-up: MTS proliferation data value: unit not given here; conditions: 96 h; for MTS proliferation data value: replicates; for IC50: Homo sapiens
Method: A total of 10,000–20,000 cells from different AML lines or 50,000–75,000 cells of primary AML blasts were treated in a 96-well plate for 72 hours or 96 hours at 37°C, 5% CO2. CellTiter 96 Aqueous MTS reagent (Promega) was added to cells followed by a 3-hour incubation at 37°C, 5% CO2. The absorbance was measured at 490 nm using DTX 880 plate reader, and the IC50 was calculated using GraphPad Prism.

[1] = test system: HL-60 disseminated CDX model; assay: HL-60 CDX synergy with decitabine; assay type: in vivo, NCG mice; conditions: Decitabine 0.4 mpk IP (4on/10off), HOSU53 10 mpk p.o. qd, or both; flag 0 = censored at day 82
Method: Female 8- to 12-week-old female NCG mice were engrafted with 1 × 10^7 cells via tail vein i.v. injection. At 14 days after engraftment (day 1 of treatment), mice (n = 10/arm) were randomized to receive p.o. qd and i.p. vehicle (p.o. qd 40% HPβCD and 4 on/10 off i.p. PBS), 10 mg/kg HOSU-53, i.p. 0.4 mg/kg decitabine on a 4-day on/10-day off cycle, or their combination till moribundity or end of study day 82.

MV4-11 AML target cells = assay: Murine BMDM phagocytosis of MV4-11 cells (ADCP); assay type: cell-based, human
Method: Supplemental Figure S.9. A) Murine bone marrow derived macrophages (BMDM, effector cells) were generated from harvested bone marrow cells grown in the presence of 20ng/ml murine M-CSF for 7-8 days where media was refreshed on day 3. After BMDM generation, they were collected and stained […]
with CFDA-SE (green). […]
and stained with CTV (blue). Green BMDM cells were then co-cultured for 4 h with blue MV4-11 AML cells in the presence of 10 µg/ml isotype IgG1 or anti-CD47 antibody at 1:1 E:T ratio in an ultra-low binding tissue culture plate. Cells were then collected and analyzed using flow cytometry to quantify percentage of phagocytosed cells indicated by viable F4/80+CFDA+CTV+ cells (n=6). Adjusted FDR p-value *<0.05, ***≤0.0001, nonsignificant (ns) ≥0.05. B) Representative florescent microscopy images were taken using 20x objective to visualize antibody dependent cellular phagocytosis (ADCP). Prior to imaging, the wells were rinsed three time to remove MV4-11 target cells in suspension and allow the imaging of adherent effector cells (green BMDM) and residual blue MV4 -11 target cells. The outlined area in the red box is manually enlarged.
(1 picture or pasted object on this page, not shown here)

LogD = assay type: physicochemical; conditions: pH 7.4
Excerpt: (§1) Supplement jciinsight-9-173646-s083.xlsx, sheet "Supplemental Table S.2." | column: HOSU-53

HSA = HSA (Homo sapiens, UniProt P02768); assay: Protein binding, HSA; assay type: in vitro ADME; conditions: 4% HSA
Chain of HSA (P02768 25-609): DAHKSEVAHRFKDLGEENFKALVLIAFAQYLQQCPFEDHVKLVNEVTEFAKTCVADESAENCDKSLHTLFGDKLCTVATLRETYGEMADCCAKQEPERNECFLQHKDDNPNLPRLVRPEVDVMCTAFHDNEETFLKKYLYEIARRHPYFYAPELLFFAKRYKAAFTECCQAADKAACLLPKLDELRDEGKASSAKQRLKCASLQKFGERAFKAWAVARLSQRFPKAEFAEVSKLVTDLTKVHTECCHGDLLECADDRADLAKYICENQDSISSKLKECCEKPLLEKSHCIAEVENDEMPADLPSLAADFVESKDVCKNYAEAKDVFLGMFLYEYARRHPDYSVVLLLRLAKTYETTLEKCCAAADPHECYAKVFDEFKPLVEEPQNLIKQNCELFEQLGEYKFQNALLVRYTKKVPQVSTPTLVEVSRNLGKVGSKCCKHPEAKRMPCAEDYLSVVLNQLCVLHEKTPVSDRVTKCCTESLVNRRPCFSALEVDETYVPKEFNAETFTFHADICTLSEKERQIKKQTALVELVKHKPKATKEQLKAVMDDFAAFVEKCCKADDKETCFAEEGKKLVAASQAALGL
Excerpt: as §1

With CCCCOc1cccc(-c2ccc(-c3cc(C(=O)O)c4cc(F)ccc4n3)cc2)c1 [HOSU-53] the “MTS proliferation data value” (primary AML samples; 0.25 µM, Pt.1) was 18.4884 and 20.0581 and 18.3139, the “MTS proliferation data value” (primary AML samples; 0.25 µM, Pt.2) was 32.3851 (2×) and 33.2604 and the “MTS proliferation data value” (primary AML samples; 0.25 µM, Pt.3) was 55.8692 and 53.1947. The “MTS proliferation data value” (primary AML samples; 0.25 µM, Pt.4) was 65.8976 and 67.7546 and 63.7029, the “MTS proliferation data value” (primary AML samples; 0.25 µM, Pt.5) was 79.2706 and 80.6142 and 76.9674 and the “MTS proliferation data value” (primary AML samples; 0.25 µM, Pt.6) was 33.7613 and 67.7492 and 73.4139. The “MTS proliferation data value” (primary AML samples; 0.25 µM, Pt.7) was 62.3298 and 55.7489 and 55.295, the “MTS proliferation data value” (primary AML samples; 0.25 µM, Pt.8) was 107.765 and 102.823 and 101.765 and the “MTS proliferation data value” (primary AML samples; 0.5 µM, Pt.1) was 16.3954 and 17.2674 and 16.2209. The “MTS proliferation data value” (primary AML samples; 0.5 µM, Pt.2) was 27.5711 and 28.884 and 28.2276, the “MTS proliferation data value” (primary AML samples; 0.5 µM, Pt.3) was 49.3314 and 49.0342 and 46.211 and the “MTS proliferation data value” (primary AML samples; 0.5 µM, Pt.4) was 54.2487 and 57.2876 and 57.4564. For the same compound, the “MTS proliferation data value” (primary AML samples; 0.5 µM, Pt.5) was 73.1286 and 69.0979 and 69.2898, the “MTS proliferation data value” (primary AML samples; 0.5 µM, Pt.6) was 55.9668 and 65.2568 and 57.5529 and the “MTS proliferation data value” (primary AML samples; 0.5 µM, Pt.7) was 44.4024 and 40.0908 and 37.1407. For the same compound, the “MTS proliferation data value” (primary AML samples; 0.5 µM, Pt.8) was 86.9412 and 90.8235 and 88.3529, the “MTS proliferation data value” (primary AML samples; 0.75 µM, Pt.1) was 15 and 14.4767 and 15.1744 and the “MTS proliferation data value” (primary AML samples; 0.75 µM, Pt.2) was 23.4136 and 22.1007 and 24.5077. The “MTS proliferation data value” (primary AML samples; 0.75 µM, Pt.3) was 39.8217 and 43.685 and 41.9019, the “MTS proliferation data value” (primary AML samples; 0.75 µM, Pt.4) was 52.2229 (2×) and 53.7423 and the “MTS proliferation data value” (primary AML samples; 0.75 µM, Pt.5) was 64.4914 and 65.8349 (2×). The “MTS proliferation data value” (primary AML samples; 0.75 µM, Pt.6) was 26.5106 and 39.426 and 36.7069, the “MTS proliferation data value” (primary AML samples; 0.75 µM, Pt.7) was 37.1407 and 39.8638 and 33.2829 and the “MTS proliferation data value” (primary AML samples; 0.75 µM, Pt.8) was 77.0588 (2×) and 79.1765. For the same compound, the “MTS proliferation data value” (primary AML samples; 1 µM, Pt.1) was 14.4767 and 15.5233 and 13.7791, the “MTS proliferation data value” (primary AML samples; 1 µM, Pt.2) was 21.663 (2×) and 22.9759 and the “MTS proliferation data value” (primary AML samples; 1 µM, Pt.3) was 40.1189 and 38.633 and 39.5245. The “MTS proliferation data value” (primary AML samples; 1 µM, Pt.4) was 47.327 and 51.7164 and 51.5476, the “MTS proliferation data value” (primary AML samples; 1 µM, Pt.5) was 64.6833 and 63.5317 and 66.6027 and the “MTS proliferation data value” (primary AML samples; 1 µM, Pt.6) was 19.0332 and 30.5891 and 31.9486. For the same compound, the “MTS proliferation data value” (primary AML samples; 1 µM, Pt.7) was 33.9637 and 32.6021 and 29.879, the “MTS proliferation data value” (primary AML samples; 1 µM, Pt.8) was 72.1176 and 72.8235 (2×) and the “MTS proliferation data value” (primary AML samples; 5 µM, Pt.1) was 14.3023. For the same compound, the “MTS proliferation data value” (primary AML samples; 5 µM, Pt.4) was 43.444 and 45.8075 and 44.1193, the “MTS proliferation data value” (primary AML samples; 5 µM, Pt.8) was 55.5294 and the IC50 (primary AML samples; n = 8 samples, 96-hour treatment, read-out: median IC50 in primary AML patient samples) was 120 nM. For the same compound, the IC50 (primary AML samples; read-out: IC50 [95% CI], Pt. 1, 96-hour treatment) was 23 nM, the IC50 (primary AML samples; read-out: IC50 [95% CI], Pt. 2, 96-hour treatment) was 103 nM and the IC50 (primary AML samples; read-out: IC50 [95% CI], Pt. 3, 96-hour treatment) was 85 nM. It also gave an IC50 (primary AML samples; read-out: IC50 [95% CI], Pt. 4, 96-hour treatment) of 112 nM, an IC50 (primary AML samples; read-out: IC50 [95% CI], Pt. 5, 96-hour treatment) of 129 nM and an IC50 (primary AML samples; read-out: IC50 [95% CI], Pt. 6, 96-hour treatment) of 155 nM. The IC50 (primary AML samples; read-out: IC50 [95% CI], Pt. 7, 96-hour treatment) was 169 nM, the IC50 (primary AML samples; read-out: IC50 [95% CI], Pt. 8, 96-hour treatment) was 584 nM and the “Survival, day of study at event (per animal)” value [1] was 57 days and 52 days and 56 days and 58 days and 55 days. For the same compound, the “CDFA+F4/80+CTV+” value (MV4-11 AML target cells; 25nM HOSU53 + IgG1, six replicate columns, DMSO + IgG1 control 3.5-16.7) was 31.4 and 44.6 and 23.1 and 30.2 and 23.9 and 17.1, the “phagocytosis of AML cells by murine BMDM in presence of B6H12 antibody” value (MV4-11 AML target cells; 72-hour HOSU-53 (10nM) pretreatment of MV4-11, 10 µg/ml anti-CD47) was “greatly enhanced phagocytosis” and the logD (LogD) was 4.36. The fraction unbound (HSA) was under 0.01.
